# Laboratory results published in patent publication US20200000825A1, “METHODS AND COMPOSITIONS FOR TREATING AND PREVENTING VIRAL INFECTIONS” (ENTERIN LABORATORIES, INC., priority 2009, published 2020).
# What was measured:
# [1] = cited from earlier work
# [2] = test system: murine cytomegalovirus (MCMV); type: in vivo, Balb/c mice
# [3] = test system: human Hepatitis Delta virus; assay: Hepatitis Delta virus replication in primary human hepatocytes, PCR (Example 13); type: cell-based
# Method: Primary human hepatocytes were established in a 96 well microtiter plate. Squalamine was then added at concentrations of 20 or 60 μg/ml followed by an inoculum of Hep D virus, and then in culture for 3 hours, after which fresh medium was introduced, and the cells maintained in culture for 7 days. Viral growth was measured by PCR using viral specific primers and normalized to the total RNA extracted from each corresponding well.
# Human Oct 2 = biological target: T1, Human Oct 2 (Homo sapiens, UniProt O15244); assay: MPP uptake inhibition (transport competition) assay in CHO cells over-expressing a human Oct transporter; type: cell-based
# T1 sequence (O15244 1-555): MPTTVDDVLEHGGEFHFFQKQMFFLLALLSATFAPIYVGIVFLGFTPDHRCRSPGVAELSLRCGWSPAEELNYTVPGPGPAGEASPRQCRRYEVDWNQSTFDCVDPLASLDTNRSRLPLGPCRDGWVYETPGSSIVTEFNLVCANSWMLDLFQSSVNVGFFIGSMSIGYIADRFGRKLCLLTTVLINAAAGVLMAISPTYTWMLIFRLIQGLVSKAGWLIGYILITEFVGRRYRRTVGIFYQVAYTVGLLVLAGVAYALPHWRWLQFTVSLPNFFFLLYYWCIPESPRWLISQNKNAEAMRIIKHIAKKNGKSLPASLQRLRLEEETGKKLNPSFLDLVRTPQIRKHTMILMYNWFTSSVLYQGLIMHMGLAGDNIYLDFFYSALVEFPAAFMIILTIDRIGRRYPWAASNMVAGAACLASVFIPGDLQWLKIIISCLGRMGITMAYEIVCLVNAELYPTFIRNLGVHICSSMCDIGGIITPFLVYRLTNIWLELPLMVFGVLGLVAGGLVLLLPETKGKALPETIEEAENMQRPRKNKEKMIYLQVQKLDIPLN
# Method: This example determines whether squalamine is a substrate for the organic cation transporter (Oct). This determination employed a standard transport competition assay, described in the literature (Lips, Volk et al. 2005).
# Chinese hamster ovary cells, previously engineered to over-express a specific human Oct transporter were used in the assay. In this example, the effect of a specific concentration of an amino sterol is determined on the intracellular uptake of radiolabelled 1-methyl-4-phenylpyridine (MPP) (at 0.01 μM), measured after a 1-second exposure. […] IC50 refers to the concentration of squalamine or 1436 required to inhibit MPP uptake by 50%. Table 1 below describes the affinity of squalamine and Amino sterol 1436 for human organic cation transporters (Human Oct 1, Human Oct 2, and Human Oct 3) based upon the MPP uptake inhibition assay.
# human Hepatitis B virus = assay: Hepatitis B virus replication in primary human hepatocytes, PCR (Example 12); type: cell-based
# Method: Primary human hepatocytes were established in a 96 well microtiter plate. Squalamine was then added at concentrations of 2, 6 or 20 μg/ml followed by an inoculum of Hep B virus, and then in culture for 16 hours, after which fresh medium was introduced, and the cells maintained in culture for 14 days. In a second experiment, squalamine at 6 or 20 μg/ml was added to the cells at 24 hours post inoculation for a 16 hour exposure, followed by removal of medium, replacement with fresh medium, and continued culture for 14 days. Viral growth was measured by PCR using viral specific primers and normalized to the total RNA extracted from each corresponding well.
# [4] = test system: Human umbilical endothelial cells; assay: Kinetics of uptake of 3H-labelled aminosterol into endothelial cells; settings: for Uptake into endothelial cells: 1 μg/ml 3H-aminosterol
# Dengue virus = assay: Dengue infection of HMEC-1 cells, immunohistochemical detection of viral E protein (Example 11); type: cell-based, human
# Method: Cells were grown on uncoated glass cover-slips following a published protocol (Zamudio-Meza, Castillo-Alvarez et al. 2009). The cells were pretreated with squalamine for 2 hr at 37° C. prior to viral exposure; virus (multiplicity of infection of 3) remained in contact with cells for 30 minutes at 4° C., followed by 90 minutes at 37° C. The medium was then replaced with fresh medium lacking virus and squalamine and maintained at 37° C. for 48 hrs. Cells were fixed and processed for immunohistochemical detection of viral E protein. Viral E protein expression was used to monitor the early stages of infection.
# [5] = 500 mg/m(2)/day, 5-day continuous i.v. infusion
# [6] = mouse, in vivo, ip, 10 mg/kg/day
# [7] = 20 μg/ml, added during initial stages of infection
smiles,measurement,setting,value
"CC(C)[C@@H](CC[C@@H](C)[C@H]1CC[C@H]2[C@@H]3[C@H](O)C[C@H]4C[C@@H](NCCCNCCCCN)CC[C@]4(C)[C@H]3CC[C@]12C)OS(=O)(=O)O [Squalamine, squalamine]",Mean clearance,[1]; [5],2.67 liters/h/m(2)
same,Mean half-life,[1]; [5],9.46 h
same,Mean volume of distribution,[1]; [5],36.84 liters/m(2)
same,Steady-state concentrations,[1]; [5],20.08 micro g/ml
same,Patients with dose-limiting grade 4 hyperbilirubinemia and grade 3 neurosensory changes,[1]; 500 mg/m(2)/day,one of seven
same,Tolerability,[1]; 500 mg/m(2)/day,well tolerated
same,Patients who developed grade 4 hyperbilirubinemia,[1]; 700 mg/m(2)/day,two of three
same,Dose dependence of pharmacokinetics,[1]; 6 to 700 mg/m(2)/day,dose-proportional
same,Viral titers in lung versus control,[2]; 10 mg/kg/day i.p.,trend toward reduction
same,Viral titers versus control cohort,"[2]; day 7, spleen and liver, 10 mg/kg/day s.c. and i.p. groups",significantly lower
same,"Viral titers, difference between groups","[2]; days 3 to 7, lungs and salivary glands",no significant differences
same,Effect on viral growth,[2]; [6],little effect
same,Reduction in viral growth,[2]; [6],greater than 10 fold
same,Virus in liver and spleen,[2]; [6],undetectable
same,Virus in liver and spleen versus controls,"[2]; mouse, in vivo, sc, 10 mg/kg/day",significantly reduced
same,Inhibition of viral production,[3]; [7],90%
same,Cytotoxicity in vitro,"[3]; 60 μg/ml, primary human hepatocytes",cytotoxic
same,% Inhibition of MPP uptake caused by 100 μM,"Human Oct 2; 100 μM aminosterol, radiolabelled MPP 0.01 μM, 1-second exposure",40%
same,IC50,Human Oct 2; read-out: IC50 (concentration required to inhibit MPP uptake by 50%),50 µM
same,Inhibition of viral production,"human Hepatitis B virus; 2 μg/ml, added at the outset of infection",14%
same,Inhibition of viral production,"human Hepatitis B virus; 6 μg/ml, added at 24 hours",30%
same,Inhibition of viral production,"human Hepatitis B virus; 6 μg/ml, added at the onset of infection",54%
same,Inhibition of viral production,"human Hepatitis B virus; 20 μg/ml, added at 24 hours",64%
same,Inhibition of viral production,human Hepatitis B virus; [7],83%
same,Uptake into endothelial cells,[4]; 5 min,250 Molecules/cell (×10^−6)
same,Uptake into endothelial cells,[4]; 30 min,400 Molecules/cell (×10^−6)
same,Uptake into endothelial cells,[4]; 60 min,500 Molecules/cell (×10^−6)
same,Uptake into endothelial cells,[4]; 120 min,500 Molecules/cell (×10^−6)
same,Uptake into endothelial cells,[4]; 180 min,600 Molecules/cell (×10^−6)
same,Entry into the HUVEC relative to Aminosterol 1436,[4]; squalamine versus Aminosterol 1436,over 2 orders of magnitude
same,Inhibition of viral infection,Dengue virus; 46 ug/ml,about 80%
same,Inhibition of viral infection,Dengue virus; 60 μg/ml and higher,~100%
same,Inhibition of viral infection,Dengue virus; 62 ug/ml,100%
same,"Cell viability (morphology, phase contrast)",Dengue virus; HMEC-1 cells at the effective squalamine concentrations,not diminished
same,Inhibition of viral infection,Dengue virus; about 40 μg/ml,80%
same,Inhibition of viral infection,Dengue virus; concentrations above 40 ug/ml,almost completely inhibited
